Assays:
[1] = tested on: wild-type mouse striatal cells; assay: GFP-LC3B association with mitochondria in cells expressing Flag-VCP; format: cell-based; conditions: wt striatal cells, 36 h
Procedure: Figure 5 Treatment of HV-3 reduces excessive mitophagy in HD cell cultures and HD mouse brains. (a) HdhQ7 and HdhQ111 cells were treated with control siRNA (con) or VCP siRNA (siVCP) for 48 h. Mitochondria were isolated and LC3 mitochondrial levels were determined by WB. Representative blots are from three independent experiments. The quantitation of LC3 II levels on mitochondria is provided on the right. VADC was used as a loading control. (b) Flag-VCP and GFP-LC3B were co-transfected into wild-type striatal cells. Mitochondria were isolated after 36 h of transfection. The GFP-LC3B levels on mitochondria were examined by WB. VDAC was used as a loading control. Representative blots are from three independent experiments. Histogram: quantitation of GFP-LC3B mitochondrial protein level. HdhQ7 and HdhQ111 cells were treated with control peptide TAT or peptide HV-3 (3 uM/day for 3 days). (c) HdhQ111 cells were transfected with GFP-LC3B for 24 h. The number of GFP-LC3B puncta was quantitated and shown in the histogram. […] (d) Enzyme activity of lysosomal Cathepsin B was measured using a Cathepsin B assay kit. […] (e) Mitochondrial mass was measured by the fluorescent density of Mitotracker green. […] Histogram: the number of mitophagosomes per 100 μm^2 was counted and quantitated. Fifteen random areas in the striatum of each animal were analyzed. […]
Protein concentrations were determined by Bradford assay. […]

YAC128 mice = assay: EM of striatal mitophagosomes; format: in vivo, mouse; conditions: YAC128, 3 mg kg^−1 per day, age 3–9 months, per 100 μm^2
Source text: The HdhQ7 and HdhQ111 cells were fixed by 2.5% glutaraldehyde in 0.1 M cacodylate buffer. Small pieces of the striata tissue of mice were fixed by immersion in triple aldehyde-DMSO. After rinsing in 0.1 M phosphate buffer (pH 7.3), the samples were post-fixed in ferrocyanide-reduced osmium tetroxide.
The above fixed samples were rinsed by water followed by overnight soaking in acidified uranyl acetate. After rinsing in distilled water, the blocks were dehydrated in ascending concentrations of ethanol, passed through propylene oxide, and embedded in Poly/Bed resin. Thin sections were sequentially stained with acidified uranyl acetate followed by a modification of Sato's triple lead stain. These sections were examined in a FEI Tecnai Spirit (T12) transmission electron microscope with a Gatan US4000 4kx4k CCD at the Case Western Reserve University EM core facility. Mitochondria from 15 random areas in each group were imaged by an experimenter blind to the experimental groups. The length of mitochondria was measured by NIH Image J software. The number of mitophagosomes per 100 μm^2 was counted. The number of gold particles labelling VCP on mitochondria were quantitated.
YAC128 mice (Tg) and their age-matched wt littermates were implanted with an osmotic pump containing TAT control peptide or HV-3 peptide (3 mg/kg/day, each) starting from the age of 3 months. […]

C57Black mice = assay: Blood biochemistry of naive mice; format: in vivo, mouse; conditions: 3 mg/kg/day, 4 weeks
Procedure: Supplementary Figure 8 : Toxicity analysis of HV -3in naïve mice .
We performed a toxicity analysis of HV-3 in mice. Six -week-old C57Black mice were treated with saline or peptide HV-3 at 3mg/kg/day by Alzet pump implantation. After 4- week treatment, the plasma, blood and whole mouse bodies of mice were collected. Examination on blood chemistry (Supplementary Table 1), hematology (Supplementary Table 2) and general necropsy of mice were performed at the Animal Diagnostic Laboratory at Stanford University. The experimenter who conducted the analysis was blind to the treatment groups. Automated hematology was performed on the Sysmex XT-2000iV analyzer system. Blood smears were made for all full CBC samples and reviewed by a medical technologist. Manual differentials were performed as indicated by species and automated analysis. Chemistry analysis was performed on the Siemens Dimension Xpand analyzer. […]
Student’s t test. Four-week sustained treatment with HV-3 by pump implantation had no effects on blood chemistry (Supplementary Table 1), hematology (Supplementary Table 2), and gross necropsy of naïve mice when compared to mice treated with saline. A four-week treatment with HV-3 had […] on immuno-density of CD3, a marker of T-cell for adaptive immune response, in the brains and spleens of naïve mice (a). Treatment with HV-3 had no effects on the size and weight of the spleens (b). […]
Table 1: Effects of 4-w eek treatment w ith HV-3 on blood biochemistry of naïve mice […]
M ean SD M ean SD p-value unit n

CSCC[C@H](NC(=O)[C@@H](NC(=O)[C@H](CC(C)C)NC(=O)[C@@H](NC(=O)[C@H](Cc1c[nH]cn1)NC(=O)CCCCCNC(=O)[C@H](CCCNC(=N)N)NC(=O)[C@H](CCCNC(=N)N)NC(=O)[C@H](CCCNC(=N)N)NC(=O)[C@H](CCC(N)=O)NC(=O)[C@H](CCCNC(=N)N)NC(=O)[C@H](CCCNC(=N)N)NC(=O)[C@H](CCCCN)NC(=O)[C@H](CCCCN)NC(=O)[C@H](CCCNC(=N)N)NC(=O)CNC(=O)[C@@H](N)Cc1ccc(O)cc1)C(C)C)C(C)C)C(=O)N[C@@H](CS)C(=O)N[C@@H](C)C(=O)N[C@H](C(N)=O)[C@@H](C)O [HV-3]
GFP-LC3B association with mitochondria [1]: could be inhibited by treatment with HV-3 | number of mitophagosomes in striatum (YAC128 mice): reduced by HV-3 treatment | ALT (C57Black mice; mean, n = 4/group): 71.00 U/L | AST (C57Black mice; mean, n = 4/group): 237.25 U/L | Albumin (C57Black mice; mean, n = 4/group): 2.95 g/dL | Alkaline Phosphatase (C57Black mice; mean, n = 4/group): 108.00 IU/L | Anion Gap (C57Black mice; mean, n = 4/group): 33.08 mmol/L | BUN (C57Black mice; mean, n = 4/group): 27.50 mg/dL | Carbon Dioxide (C57Black mice; mean, n = 4/group): 16.45 mmol/L | Chloride (C57Black mice; mean, n = 4/group): 109.00 mmol/L | Creatinine (C57Black mice; mean, n = 4/group): 0.40 mg/dL | Globulin (C57Black mice; mean, n = 4/group): 2.20 | Glucose (C57Black mice; mean, n = 4/group): 312.25 mg/dL | Na/K Ratio (C57Black mice; mean, n = 4/group): 20.96 | Phosphorus (C57Black mice; mean, n = 4/group): 8.45 mg/dL | Potassium (C57Black mice; mean, n = 4/group): 7.28 mmol/L | Sodium (C57Black mice; mean, n = 4/group): 151.25 mmol/L | T.Protein (C57Black mice; mean, n = 4/group): 5.15 g/dL | Total Bilirubin (C57Black mice; mean, n = 4/group): 0.13 mg/dL | Calcium (C57Black mice; mean, n = 4/group, p 0.04 versus saline): 9.78 mg/dL | blood chemistry (overall) (C57Black mice; versus saline): no effects
